Data published in ChEMBL document CHEMBL4118092, “Synthesis and Activity of a New Series of Antileishmanial Agents” (ACS Med Chem Lett, 2017).

Tests used:
Leishmania donovani [1] = test: Antileishmanial activity against Leishmania donovani axenic amastigotes after 72 hrs by CellTiter reagent based assay; type: functional, organism-based
Leishmania donovani [2] = test: Antileishmanial activity against Leishmania donovani axenic amastigotes infected in mouse J774 cells after 72 hrs by Draq5 staining based assay; type: functional, organism-based; details: J774, 72 h
J774.A1 = test: Cytotoxicity against mouse J774.A1 cells after 72 hrs by MTS assay; type: cell-based; details: J774.A1, 72 h
[3] = Kinetic solubility of the compound in pH 7.4 PBS buffer; type: physicochemical; details: read-out: Kinetic_solubility

Row | Compound | IC50 (Leishmania donovani [1]) | IC50 (Leishmania donovani [2]) | IC50 (J774.A1) | solubility kinetic [3]
1 | Cc1nn(-c2ccc3c(N)ncnc3c2)c2c1C(=O)CC(C)(C)C2 | 2.42 µM | 1.33 µM | > 50 µM | –
2 | COCCCNc1cc(-n2nc(C)c3c2CN(C(=O)COC)CC3=O)ccc1C(N)=O | 4.48 µM | 3.58 µM | > 50 µM | –
3 | CCC(=O)N1CC(=O)c2c(C)nn(-c3ccc(C(N)=O)c(NCCCOC)c3)c2C1 | 6.43 µM | 3.54 µM | > 50 µM | –
4 | COCCCNc1cc(-n2nc(C)c3c2CC(C)(C)CC3=O)ccc1C(N)=O | 0.65 µM | 0.88 µM | 3.52 µM | –
5 | COCCCNc1cc(-n2nc(C)c3c2CN(C(N)=O)CC3=O)ccc1C(N)=O | > 20 µM | > 10 µM | > 50 µM | –
6 | COCCCNc1cc(-n2nc(C)c3c2CN(C(C)=O)CC3=O)ccc1C(N)=O | 13.9 µM | 1.06 µM | > 50 µM | > 490 µM
7 | COCCCNc1cc(-n2nc(C)c3c2CN(C(=O)c2ccc(C)cc2)CC3=O)ccc1C(N)=O | 2.6 µM | 1.75 µM | 26.3 µM | –
8 | COCCCNc1cc(-n2nc(C)c3c2CN(S(C)(=O)=O)CC3=O)ccc1C(N)=O | > 20 µM | 5.38 µM | 25.5 µM | –
9 | COCCCNc1cc(-n2nc(C)c3c2CN(C(=O)C(C)C)CC3=O)ccc1C(N)=O | 1.9 µM | 3.54 µM | 37.3 µM | –
10 | COCCCNc1cc(-n2nc(C)c3c2CN(Cc2ccccc2)CC3=O)ccc1C(N)=O | 2.29 µM | 6.33 µM | > 50 µM | –
11 | COCCCNc1cc(-n2nc(C)c3c2CNCC3=O)ccc1C(N)=O | 3.9 µM | > 10 µM | > 50 µM | –
12 | COCCCNc1cc(-n2nc(C)c3c2CN(C(=O)NCc2ccccc2)CC3=O)ccc1C(N)=O | > 20 µM | > 10 µM | > 50 µM | –
13 | COCCCNc1cc(-n2nc(C)c3c2CN(C(=O)C2CCCC2)CC3=O)ccc1C(N)=O | 2.99 µM | 1.52 µM | > 50 µM | –
14 | COCCCNc1cc(-n2nc(C)c3c2CCCC3=O)ccc1C(N)=O | > 25 µM | > 10 µM | > 50 µM | –
15 | CCCCCCCCCCCCCCCCOP(=O)([O-])OCC[N+](C)(C)C [MILTEFOSINE] | 3.26 µM | 1.43 µM | > 50 µM | –
16 | C[C@@H]1C[C@H]2O[C@@H]2/C=C\C=C\C(=O)Cc2c(Cl)c(O)cc(O)c2C(=O)O1 [RADICICOL] | 0.62 µM | 0.29 µM | 2.35 µM | –
17 | CC1(C)CC(=O)c2c(C(F)(F)F)nn(-c3ccc(C(N)=O)c(N[C@H]4CC[C@H](O)CC4)c3)c2C1 [SNX-2112] | 0.42 µM | 0.61 µM | < 0.06 µM | –
